Activity calls are given as the source filed them. The rule behind the calls is not given here.

Data set [1] concerns the target T1, Protein deacetylase HDAC6 (Homo sapiens) (UniProt Q9UBN7).
T1 sequence (whole entry): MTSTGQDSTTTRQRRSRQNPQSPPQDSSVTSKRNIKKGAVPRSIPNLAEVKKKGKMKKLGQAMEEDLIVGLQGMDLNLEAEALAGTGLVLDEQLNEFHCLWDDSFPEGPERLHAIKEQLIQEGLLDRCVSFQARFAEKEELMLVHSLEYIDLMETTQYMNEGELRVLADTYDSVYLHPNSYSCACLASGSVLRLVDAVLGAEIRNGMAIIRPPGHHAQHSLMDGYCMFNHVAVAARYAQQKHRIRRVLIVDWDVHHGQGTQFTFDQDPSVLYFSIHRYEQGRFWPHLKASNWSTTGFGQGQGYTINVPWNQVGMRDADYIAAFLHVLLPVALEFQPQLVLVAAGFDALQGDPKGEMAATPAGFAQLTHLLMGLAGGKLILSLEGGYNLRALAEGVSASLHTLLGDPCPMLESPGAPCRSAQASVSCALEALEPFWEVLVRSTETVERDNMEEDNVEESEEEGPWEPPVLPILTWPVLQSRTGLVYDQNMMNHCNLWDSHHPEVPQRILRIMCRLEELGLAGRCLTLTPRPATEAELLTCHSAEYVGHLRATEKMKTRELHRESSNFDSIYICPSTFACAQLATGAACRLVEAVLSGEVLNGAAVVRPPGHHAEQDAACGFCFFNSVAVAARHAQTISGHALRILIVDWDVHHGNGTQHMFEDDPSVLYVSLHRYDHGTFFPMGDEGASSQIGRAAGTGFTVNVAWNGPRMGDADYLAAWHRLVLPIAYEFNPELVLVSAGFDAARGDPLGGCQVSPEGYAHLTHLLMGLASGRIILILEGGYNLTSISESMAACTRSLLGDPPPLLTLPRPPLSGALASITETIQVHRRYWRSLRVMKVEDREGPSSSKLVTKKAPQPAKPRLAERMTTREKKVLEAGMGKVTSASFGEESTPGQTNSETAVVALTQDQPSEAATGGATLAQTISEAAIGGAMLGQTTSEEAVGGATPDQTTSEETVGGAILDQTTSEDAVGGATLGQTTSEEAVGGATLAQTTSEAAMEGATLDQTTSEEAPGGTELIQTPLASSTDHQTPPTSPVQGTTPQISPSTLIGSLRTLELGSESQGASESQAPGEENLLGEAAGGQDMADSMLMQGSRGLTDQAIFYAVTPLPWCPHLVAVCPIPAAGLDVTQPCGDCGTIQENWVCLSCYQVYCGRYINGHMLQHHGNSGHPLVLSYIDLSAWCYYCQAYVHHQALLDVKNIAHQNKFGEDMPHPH
The experiment in a line: Inhibition of HDAC6 in human NCI-H460 cells at high-dose assessed as increase in alpha-tubulin acetylation measured by Western blot analysis. In kind it is cell-based. (In general: In western blotting, separated proteins are transferred to a membrane and probed.)

Data set [2] has as its target T2, Histone deacetylase 11 (Homo sapiens) (UniProt Q96DB2).
T2 sequence (whole entry): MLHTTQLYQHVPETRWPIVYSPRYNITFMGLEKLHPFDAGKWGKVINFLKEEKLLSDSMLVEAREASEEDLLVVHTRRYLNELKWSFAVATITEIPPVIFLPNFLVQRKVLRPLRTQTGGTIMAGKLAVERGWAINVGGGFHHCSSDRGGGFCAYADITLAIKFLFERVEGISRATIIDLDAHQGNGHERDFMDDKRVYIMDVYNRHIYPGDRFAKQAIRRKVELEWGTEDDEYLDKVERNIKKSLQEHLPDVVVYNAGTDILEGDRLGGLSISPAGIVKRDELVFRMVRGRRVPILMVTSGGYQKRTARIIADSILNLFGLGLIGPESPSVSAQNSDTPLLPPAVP
In words: Inhibition of HDAC11 in human A2780 cells at 0.1 to 0.4 uM assessed as induction of p53 acetylation and measured by Western blot analysis. The settings on record: dose 0.1-0.4 µM. The format is cell-based.

Data set [3] concerns the target T2, Histone deacetylase 11 (Homo sapiens). In words: Inhibition of HDAC11 in human A2780 cells at 0.1 to 0.4 uM assessed as increase in p21 level and measured by Western blot analysis. In kind it is cell-based. The settings on record: dose 0.1-0.4 µM.
Data set [4] has as its system NCI-H460. The experiment in a line: Induction of cell cycle arrest in human NCI-H460 cells assessed as accumulation of cells at sub-G1 phase at 0.26 uM after 72 hrs by flow cytometry (reference value: 1.1%). In kind it is functional.
For data set [5], the system named is A2780. The experiment in a line: Induction of cell cycle arrest in human A2780 cells assessed as accumulation of cells at S phase at 0.95 uM after 72 hrs by flow cytometry (reference value: 36.3%). The format is functional. (In general: In flow cytometry, cells or beads pass a laser one at a time.)
The test system of the next data set is MM473. In words: Induction of cell cycle arrest in human MM473-Luc cells assessed as accumulation of cells at G2/M phase at 1.4 uM after 72 hrs by flow cytometry (reference value: 11.7%). The format is functional.
For data set [6], the system named is NCI-H460. The experiment in a line: Down-regulation of POLA1 mRNA expression in human NCI-H460 cells at 0.26 uM measured by qRT-PCR assay. In kind it is functional, cell-based. (In qPCR the cycle at which signal appears reflects the starting amount.)
In data set [7] the target is T2, Histone deacetylase 11 (Homo sapiens). The experiment in a line: Inhibition of HDAC11 in human MM473 cells at 0.1 to 0.4 uM assessed as induction of p53 acetylation and measured by Western blot analysis. The format is cell-based. The settings on record: dose 0.1-0.4 µM.
For data set [8] the target is unchanged. In words: Inhibition of HDAC11 in human MM487 cells at 0.1 to 0.4 uM assessed as induction of p53 acetylation and measured by Western blot analysis. The format is cell-based. The note with it: dose 0.1-0.4 µM.
Data set [9] deals with NCI-H460. The experiment in a line: Induction of cell cycle arrest in human NCI-H460 cells assessed as accumulation of cells at sub-G1 phase at 0.25 uM after 72 hrs by flow cytometry (reference value: 1.1%). In kind it is functional.
The test system of data set [10] is NCI-H460. In words: Induction of cell cycle arrest in human NCI-H460 cells assessed as accumulation of cells at G2/M phase at 0.25 uM after 72 hrs by flow cytometry (reference value: 21.1%). The format is functional.
In data set [11] the test system is A2780. In words: Induction of cell cycle arrest in human A2780 cells assessed as accumulation of cells at G0/1 phase at 0.6 uM after 72 hrs by flow cytometry (reference value: 48.7%). In kind it is functional.
The test system of data set [12] is A2780. In words: Induction of cell cycle arrest in human A2780 cells assessed as accumulation of cells at S phase at 0.6 uM after 72 hrs by flow cytometry (reference value: 36.3%). In kind it is functional.
In data set [13] the test system is NCI-H460. The experiment in a line: Induction of cell cycle arrest in human NCI-H460 cells assessed as accumulation of cells at sub-G1 phase at 0.12 uM after 72 hrs by flow cytometry (reference value: 1.1%). In kind it is functional.
Data set [14] can be described thus: Induction of cell cycle arrest in human H460-R9A cells assessed as accumulation of cells at S phase at 2.2 uM after 72 hrs by flow cytometry (reference value: 34.5%). The format is functional.
A short description of data set [15]: Induction of cell cycle arrest in human H460-R9A cells assessed as accumulation of cells at G2/M phase at 2.2 uM after 72 hrs by flow cytometry (reference value: 15.4%). The format is functional.
A short description of data set [16]: Toxicity in mouse xenografted with human NCI-H460 cells assessed as body weight loss at 20 mg/kg, po qd administered 5 times a week for 3 to 4 weeks. In kind it is organism-based. The settings on record: in vivo, time 3-4 weeks.
For data set [17], the system named is NCI-H460. In words: Antitumor activity against human NCI-H460 cells xenografted in mouse assessed as tumor growth inhibition at 20 mg/kg, po qd administered […] for 3 to 4 weeks. The settings on record: time 3-4 weeks, read-out: TGI. In kind it is functional.

`CC(Oc1ccc(-c2ccc(C=CC(=O)O)cc2)cc1C12CC3CC(CC(C3)C1)C2)C(=O)NO` (stereo not drawn): the inhibition entry in [1], in data set [2] and in [3] was “Active” throughout. The Activity stood at 13.2% with NCI-H460 [4], 86.2% in the data set with A2780 [5] and 16.1% in the data set with MM473. Also, the outcome in the data set on NCI-H460 [6] was Active.
As to `O=C(O)C=Cc1ccc(-c2ccc(OCC(=O)NO)c(C34CC5CC(CC(C5)C3)C4)c2)cc1`, the inhibition result in data set [7] and in [8] was “Active” throughout. The Activity is 12.1% in the data set on NCI-H460 [9], 2.8% in the data set on NCI-H460 [10], 14.6% in the data set on A2780 [11] and 78.9% with A2780 [12].
With `O=C(O)C=Cc1ccc(-c2ccc(O)c(C34CC5CC(CC(C5)C3)C4)c2)cc1`, the Activity was determined as 12.4% with NCI-H460 [13], 63.4% in data set [14], 13.8% in data set [15] and 0% in data set [16]. For the same molecule, the inhibition in vivo at 20 mg/kg in the data set with NCI-H460 [17] worked out at 64%.

Values taken from ChEMBL document CHEMBL5154648, “Antitumor activity of novel POLA1-HDAC11 dual inhibitors” (Eur J Med Chem, 2022).
